Tested on: Aβ1-42 (MEF PS1wt)
Experiment: Aβ1-42 ELISA in MEF dKO cultures cotransfected with APP-CTF and human presenilin-1 wild type
Format: cell-based
Conditions: wild type human presenilin-1
Protocol: H4-APPsw cell cultures were maintained on Dulbecco's modified Eagle's medium (DMEM) supplemented with L-glutamine (2 mM), fetal bovine serum (10%), and G418 (100 μg/mL). […] Aβ1-42 and Aβ1-40 assays, and Notch inhibition assays, were carried out as described previously. Mouse embryonic fibroblasts deficient in PS1 and PS2 (MEF dKO) were passaged twice per week in DMEM/F-12 medium, consisting of a 1 : 1 mixture of DMEM and F-12 nutrient mixture supplemented with 10% fetal bovine serum, penicillin, and streptomycin. For expression of human presenilin-1 in MEF dKO cells, the full length human presenilin-1 cDNA open reading frame was cloned between the BamHI and XhoI sites of the vector pcDNA5/FRT (Invitrogen), placing presenilin-1 expression under the control of the CMV promoter. […]
IC50 determinations for Aβ1-42 and Aβ1-40 in H4-APPsw cultures in 384-well format were determined using homogeneous time-resolved fluorescence immunoassays as previously described. […] In other experiments using H4-APPsw cultures, Aβ was quantified by ELISA; for Aβ1-42 the combination of monoclonal antibodies was 26D6 and 565-HRP; for Aβ1-40 it was TSD and 26D6-HRP, and for Aβ1-x it was 4G8 and 26D6-HRP. […] For Aβ in transiently transfected PS1/PS2 dKO fibroblasts, Aβ1-42 was quantified using an ELISA kit (WACO), and Aβ1-40 was quantified by ELISA as described above for H4-APPsw cultures. […]

## COc1cc(Nc2nc3n(n2)CCCC[C@H]3c2ccc(F)cc2)ccc1-n1cnc(Cl)c1 [BMS-869780]
  IC50: 7.7 nM
